From ChEMBL document CHEMBL1201862, “PubChem BioAssay data set” (2004)
Active and inactive are the calls of the source.

Key:
[1] = target: T1, Carboxy-terminal domain RNA polymerase II polypeptide A small phosphatase 1 (Homo sapiens, UniProt Q9GZU7); assay: inhibitors of CTDSP1, concentration-response testing, biochemical assay, absorbance-based, actives from ultra-high-throughput screening (AID 540297); type: functional
T1 sequence (Q9GZU7 whole entry): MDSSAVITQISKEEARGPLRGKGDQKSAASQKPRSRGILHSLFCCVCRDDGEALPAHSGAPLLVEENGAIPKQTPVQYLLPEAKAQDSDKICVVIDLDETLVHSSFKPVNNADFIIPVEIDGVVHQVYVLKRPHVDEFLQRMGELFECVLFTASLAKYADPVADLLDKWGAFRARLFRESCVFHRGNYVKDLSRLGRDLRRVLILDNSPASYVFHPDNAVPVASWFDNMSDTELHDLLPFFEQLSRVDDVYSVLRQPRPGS

Protein skinhead-1 = target: T2, Protein skinhead-1 (Caenorhabditis elegans, UniProt P34707); type: functional
T2 sequence (P34707 whole entry): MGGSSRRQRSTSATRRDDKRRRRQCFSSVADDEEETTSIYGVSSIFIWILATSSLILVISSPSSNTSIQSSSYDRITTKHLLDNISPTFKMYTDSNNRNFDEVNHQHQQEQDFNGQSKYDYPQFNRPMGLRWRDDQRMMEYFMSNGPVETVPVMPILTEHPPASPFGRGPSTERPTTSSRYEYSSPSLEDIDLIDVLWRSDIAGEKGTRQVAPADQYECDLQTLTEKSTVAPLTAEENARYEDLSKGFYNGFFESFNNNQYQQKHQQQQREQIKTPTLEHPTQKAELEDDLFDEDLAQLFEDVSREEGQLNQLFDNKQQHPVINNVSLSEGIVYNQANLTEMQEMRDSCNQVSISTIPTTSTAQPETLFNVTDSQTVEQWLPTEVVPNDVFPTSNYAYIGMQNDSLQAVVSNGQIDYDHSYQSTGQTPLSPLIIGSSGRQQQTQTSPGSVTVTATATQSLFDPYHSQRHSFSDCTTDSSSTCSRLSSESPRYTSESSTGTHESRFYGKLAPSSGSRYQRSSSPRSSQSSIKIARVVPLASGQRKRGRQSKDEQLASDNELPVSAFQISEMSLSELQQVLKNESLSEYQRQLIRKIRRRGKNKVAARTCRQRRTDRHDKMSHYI

Cytochrome P450 3A4 = Cytochrome P450 3A4 (Homo sapiens, UniProt P08684);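 note: CYP3A4 tested as one member of a cytochrome P450 panel screen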
[2] = target: T3, High affinity choline transporter 1 (Homo sapiens, UniProt Q9GZV3); assay: CHT inhibitors, dose response, cell-based, 5-point CRC, membrane potential dye (AID 504840); type: functional
T3 sequence (Q9GZV3 whole entry): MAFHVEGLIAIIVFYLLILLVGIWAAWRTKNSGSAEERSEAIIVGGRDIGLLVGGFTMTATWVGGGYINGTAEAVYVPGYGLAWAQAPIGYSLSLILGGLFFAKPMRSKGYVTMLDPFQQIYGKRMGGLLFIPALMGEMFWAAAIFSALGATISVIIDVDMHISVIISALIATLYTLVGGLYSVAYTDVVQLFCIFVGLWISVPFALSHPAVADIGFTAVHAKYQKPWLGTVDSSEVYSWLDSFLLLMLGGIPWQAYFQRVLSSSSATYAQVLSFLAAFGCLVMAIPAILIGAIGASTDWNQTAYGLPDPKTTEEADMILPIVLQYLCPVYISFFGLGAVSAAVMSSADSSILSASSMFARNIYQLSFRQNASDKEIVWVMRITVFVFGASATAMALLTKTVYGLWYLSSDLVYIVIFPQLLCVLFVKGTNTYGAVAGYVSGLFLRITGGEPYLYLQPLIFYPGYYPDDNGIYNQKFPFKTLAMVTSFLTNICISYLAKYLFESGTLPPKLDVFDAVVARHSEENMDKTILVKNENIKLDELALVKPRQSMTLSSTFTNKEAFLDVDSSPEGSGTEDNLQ

[3] = target: Beta-2 adrenergic receptor (Homo sapiens, UniProt P07550); assay: beta2AR agonists driving receptor internalization, dose response, cell-based, FAP fluorogen, flow cytometry, cherry pick 1 (AID 588763); type: functional
Caspase-3 = target: T4, Caspase-3 (Homo sapiens, UniProt P42574); type: functional;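 note: Dose-response selectivity test against caspase-3 for candidate inhibitors of sentrin-specific proteases (SENPs)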
T4 sequence (P42574 whole entry): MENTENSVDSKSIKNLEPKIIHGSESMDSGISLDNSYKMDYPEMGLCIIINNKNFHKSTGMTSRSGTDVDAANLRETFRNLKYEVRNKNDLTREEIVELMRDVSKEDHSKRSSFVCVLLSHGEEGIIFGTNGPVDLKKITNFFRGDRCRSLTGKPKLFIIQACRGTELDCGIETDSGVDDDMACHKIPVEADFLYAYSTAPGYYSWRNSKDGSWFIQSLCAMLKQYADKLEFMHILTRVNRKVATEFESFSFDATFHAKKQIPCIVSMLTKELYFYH

[4] = target: T5, Sentrin-specific protease 8 (Homo sapiens, UniProt Q96LD8); type: functional;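 note: luminescence read-out of SENP8 inhibition, dose-response confirmation following an ultra-high-throughput screen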
T5 sequence (Q96LD8 whole entry): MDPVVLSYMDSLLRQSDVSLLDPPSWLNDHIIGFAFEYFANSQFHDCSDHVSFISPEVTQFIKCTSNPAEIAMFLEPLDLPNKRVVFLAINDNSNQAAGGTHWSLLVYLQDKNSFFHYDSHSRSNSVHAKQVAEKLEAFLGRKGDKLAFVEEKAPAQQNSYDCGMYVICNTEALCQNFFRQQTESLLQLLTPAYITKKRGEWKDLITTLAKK

[5] = target: T6, Sentrin-specific protease 7 (Homo sapiens, UniProt Q9BQF6); type: functional;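 note: Luminescence-based dose-response confirmation of ultra-high-throughput screening hits, measuring inhibition of SENP7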
T6 sequence (Q9BQF6 whole entry): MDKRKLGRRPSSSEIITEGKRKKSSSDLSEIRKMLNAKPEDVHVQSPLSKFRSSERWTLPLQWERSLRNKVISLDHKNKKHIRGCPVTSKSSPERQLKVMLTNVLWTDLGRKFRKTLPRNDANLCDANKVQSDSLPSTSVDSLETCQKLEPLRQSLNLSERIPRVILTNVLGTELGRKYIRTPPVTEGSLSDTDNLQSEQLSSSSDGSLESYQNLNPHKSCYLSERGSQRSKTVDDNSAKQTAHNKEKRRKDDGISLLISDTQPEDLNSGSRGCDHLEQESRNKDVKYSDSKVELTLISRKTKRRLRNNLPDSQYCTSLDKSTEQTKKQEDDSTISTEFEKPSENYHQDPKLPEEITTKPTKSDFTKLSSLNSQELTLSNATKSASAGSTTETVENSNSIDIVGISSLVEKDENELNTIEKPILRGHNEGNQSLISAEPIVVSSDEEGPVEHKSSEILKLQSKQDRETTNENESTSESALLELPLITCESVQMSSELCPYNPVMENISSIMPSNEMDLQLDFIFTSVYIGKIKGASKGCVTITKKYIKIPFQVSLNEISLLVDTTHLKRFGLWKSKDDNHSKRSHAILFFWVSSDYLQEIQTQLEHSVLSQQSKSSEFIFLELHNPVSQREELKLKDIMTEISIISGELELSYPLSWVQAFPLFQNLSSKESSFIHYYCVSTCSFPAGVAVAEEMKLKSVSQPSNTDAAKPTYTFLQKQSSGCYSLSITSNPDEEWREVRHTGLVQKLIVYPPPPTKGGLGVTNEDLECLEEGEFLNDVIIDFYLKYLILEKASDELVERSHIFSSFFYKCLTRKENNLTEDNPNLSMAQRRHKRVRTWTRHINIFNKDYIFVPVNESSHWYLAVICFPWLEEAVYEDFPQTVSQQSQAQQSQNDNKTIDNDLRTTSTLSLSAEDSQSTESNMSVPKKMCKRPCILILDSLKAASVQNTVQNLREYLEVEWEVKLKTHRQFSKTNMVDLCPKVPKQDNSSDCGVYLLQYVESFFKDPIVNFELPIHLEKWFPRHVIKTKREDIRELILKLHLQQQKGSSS

[6] = target: T7, Sentrin-specific protease 6 (Homo sapiens, UniProt Q9GZR1); type: functional;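 note: Luminescence-based dose-response confirmatory assay of SENP6 inhibition, following up an ultra-high-throughput screen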
T7 sequence (Q9GZR1 whole entry): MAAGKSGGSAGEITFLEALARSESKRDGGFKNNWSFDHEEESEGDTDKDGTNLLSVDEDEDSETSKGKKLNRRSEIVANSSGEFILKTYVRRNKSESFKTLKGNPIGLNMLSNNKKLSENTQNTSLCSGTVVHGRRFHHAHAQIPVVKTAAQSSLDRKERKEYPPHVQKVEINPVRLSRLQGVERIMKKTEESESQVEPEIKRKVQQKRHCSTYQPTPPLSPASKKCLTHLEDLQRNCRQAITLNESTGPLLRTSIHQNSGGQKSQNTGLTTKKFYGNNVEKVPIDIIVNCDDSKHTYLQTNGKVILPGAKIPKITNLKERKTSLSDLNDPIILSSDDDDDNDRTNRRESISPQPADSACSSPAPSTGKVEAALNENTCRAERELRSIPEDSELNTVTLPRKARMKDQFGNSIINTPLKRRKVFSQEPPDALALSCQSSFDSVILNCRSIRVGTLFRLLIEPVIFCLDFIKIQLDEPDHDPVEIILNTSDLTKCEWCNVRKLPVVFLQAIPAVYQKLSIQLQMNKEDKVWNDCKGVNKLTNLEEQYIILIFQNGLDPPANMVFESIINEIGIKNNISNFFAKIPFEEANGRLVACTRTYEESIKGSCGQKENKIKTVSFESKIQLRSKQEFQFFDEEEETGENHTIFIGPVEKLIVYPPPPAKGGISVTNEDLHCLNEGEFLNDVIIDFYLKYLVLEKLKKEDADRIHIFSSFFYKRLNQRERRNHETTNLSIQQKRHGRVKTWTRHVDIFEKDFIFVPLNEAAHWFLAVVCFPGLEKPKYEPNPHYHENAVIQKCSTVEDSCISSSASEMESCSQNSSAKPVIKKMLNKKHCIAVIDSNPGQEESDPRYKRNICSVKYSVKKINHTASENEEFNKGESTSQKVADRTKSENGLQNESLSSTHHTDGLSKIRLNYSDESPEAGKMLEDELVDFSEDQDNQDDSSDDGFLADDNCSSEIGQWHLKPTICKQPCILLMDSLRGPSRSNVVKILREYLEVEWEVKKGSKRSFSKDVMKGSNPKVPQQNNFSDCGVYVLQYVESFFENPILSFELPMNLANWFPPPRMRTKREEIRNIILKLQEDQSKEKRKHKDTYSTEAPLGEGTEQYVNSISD

[7] = target: DNA dC->dU-editing enzyme APOBEC-3G (Homo sapiens, UniProt Q9HC16); type: functional;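 note: Dose-response counterscreen measuring inhibition of APOBEC3G DNA deaminase activity, run while confirming APOBEC3A inhibitors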
[8] = target: DNA dC->dU-editing enzyme APOBEC-3A (Homo sapiens, UniProt P31941); assay: Dose Response confirmation of small molecule APOBEC3A DNA Deaminase Inhibitors via a fluorescence-based single-stranded DNA deaminase assay. [Related pubchem assays (depositor defined):AID493011, AID493024]; type: functional
[9] = target: T8, Heat shock factor protein 1 (Mus musculus, UniProt P38532); assay: HSF1 potentiators in luciferase reporter cells, confirmation, cell-based, NIH3T3, luminescence, dose retest (AID 435004); type: functional;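 note: stress induced by proteasome inhibitor MG132 added 30 min after compound; luciferase reporter driven by HSF1 response element in NIH3T3 cells; actives raise luminescence as potentiators of the MG132 stress response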
T8 sequence (P38532 whole entry): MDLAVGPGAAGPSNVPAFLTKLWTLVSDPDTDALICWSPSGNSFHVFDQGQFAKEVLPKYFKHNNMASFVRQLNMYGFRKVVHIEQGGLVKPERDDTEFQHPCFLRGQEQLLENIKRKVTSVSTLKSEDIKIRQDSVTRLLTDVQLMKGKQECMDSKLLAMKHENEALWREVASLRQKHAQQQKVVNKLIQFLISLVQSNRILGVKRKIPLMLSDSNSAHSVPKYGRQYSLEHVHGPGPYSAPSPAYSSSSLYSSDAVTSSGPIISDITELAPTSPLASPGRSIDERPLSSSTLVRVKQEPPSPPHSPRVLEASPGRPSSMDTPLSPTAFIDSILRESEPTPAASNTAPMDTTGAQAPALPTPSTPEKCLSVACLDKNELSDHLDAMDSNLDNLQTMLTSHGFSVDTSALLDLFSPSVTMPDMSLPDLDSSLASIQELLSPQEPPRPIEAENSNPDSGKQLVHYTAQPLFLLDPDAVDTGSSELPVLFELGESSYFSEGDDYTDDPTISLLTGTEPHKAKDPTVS

Beta-2 adrenergic receptor, sequence (P07550 whole entry): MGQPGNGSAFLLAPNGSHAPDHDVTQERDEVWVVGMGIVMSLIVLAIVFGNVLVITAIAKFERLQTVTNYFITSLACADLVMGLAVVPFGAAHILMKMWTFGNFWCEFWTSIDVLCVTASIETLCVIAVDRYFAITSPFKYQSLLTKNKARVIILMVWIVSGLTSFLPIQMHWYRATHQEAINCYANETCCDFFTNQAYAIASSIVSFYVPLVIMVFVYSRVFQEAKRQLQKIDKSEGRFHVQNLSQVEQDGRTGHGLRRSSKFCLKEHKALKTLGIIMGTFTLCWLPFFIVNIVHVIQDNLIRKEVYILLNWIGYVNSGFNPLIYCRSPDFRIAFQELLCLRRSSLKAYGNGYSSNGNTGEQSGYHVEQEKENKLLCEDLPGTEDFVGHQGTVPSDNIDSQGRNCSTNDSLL
DNA dC->dU-editing enzyme APOBEC-3G, sequence (Q9HC16 whole entry): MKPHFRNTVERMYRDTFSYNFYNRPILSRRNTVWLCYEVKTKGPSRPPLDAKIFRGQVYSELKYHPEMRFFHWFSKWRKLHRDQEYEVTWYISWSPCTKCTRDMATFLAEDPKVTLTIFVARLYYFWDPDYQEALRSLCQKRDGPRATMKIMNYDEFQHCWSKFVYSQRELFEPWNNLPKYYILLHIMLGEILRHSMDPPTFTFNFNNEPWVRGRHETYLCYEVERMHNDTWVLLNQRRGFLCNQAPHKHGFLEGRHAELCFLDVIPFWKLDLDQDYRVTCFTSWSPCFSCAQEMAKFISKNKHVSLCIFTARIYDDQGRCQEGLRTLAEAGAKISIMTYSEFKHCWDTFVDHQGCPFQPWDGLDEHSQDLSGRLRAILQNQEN
Cytochrome P450 3A4, sequence (P08684 whole entry): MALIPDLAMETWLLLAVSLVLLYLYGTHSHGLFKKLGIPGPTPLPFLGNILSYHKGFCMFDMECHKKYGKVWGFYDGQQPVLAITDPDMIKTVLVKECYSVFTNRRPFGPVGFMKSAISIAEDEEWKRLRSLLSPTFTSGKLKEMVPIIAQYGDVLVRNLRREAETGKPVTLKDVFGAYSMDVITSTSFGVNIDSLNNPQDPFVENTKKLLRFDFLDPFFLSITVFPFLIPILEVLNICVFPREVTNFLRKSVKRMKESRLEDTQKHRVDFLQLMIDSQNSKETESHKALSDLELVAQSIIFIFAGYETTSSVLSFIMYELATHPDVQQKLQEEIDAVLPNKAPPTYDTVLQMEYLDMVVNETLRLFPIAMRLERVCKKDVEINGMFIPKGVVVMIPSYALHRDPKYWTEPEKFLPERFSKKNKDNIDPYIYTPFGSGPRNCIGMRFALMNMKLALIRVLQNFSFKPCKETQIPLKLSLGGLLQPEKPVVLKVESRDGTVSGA
DNA dC->dU-editing enzyme APOBEC-3A, sequence (P31941 whole entry): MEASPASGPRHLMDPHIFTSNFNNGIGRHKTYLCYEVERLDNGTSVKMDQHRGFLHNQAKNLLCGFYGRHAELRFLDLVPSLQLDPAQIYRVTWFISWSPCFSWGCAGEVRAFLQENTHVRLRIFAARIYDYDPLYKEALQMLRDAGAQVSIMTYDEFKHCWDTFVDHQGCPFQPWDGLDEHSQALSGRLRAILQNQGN

| IC50 (Caspase-3) | IC50 [5] | IC50 [6] | SMILES | IC50 [4] | other results |
| --- | --- | --- | --- | --- | --- |
| – | – | – | C[C@H]1CN([C@@H](C)CO)C(=O)Cc2cc(NS(=O)(=O)c3cn(C)cn3)ccc2O[C@@H]1CN(C)C(=O)Nc1ccc(F)cc1 | – | IC50 [1]: 33.7 µM (active) |
| – | – | – | CC(C)OC(=O)CN1CCN(C2c3ccccc3-c3ccccc32)CC1 | – | IC50 (Protein skinhead-1): > 100 µM (inactive); AC50 (Cytochrome P450 3A4): 25.1 µM (inconclusive); IC50 [2]: 10.7 µM (active) |
| – | – | – | COc1ccc(C2=NN(C(=O)c3cccs3)C(c3ccc(OC)cc3)C2)cc1 (stereo unspecified) | – | EC50 [3]: 4.84 µM (active) |
| 13.3 µM (active) | 16.4 µM (active) | 6.53 µM (active) | C=COC(=O)CSc1nc(-c2cccs2)ccc1C#N | 8.96 µM (active) | – |
| 18.9 µM (active) | 7.31 µM (active) | 25.5 µM (active) | O=C(Nc1cccc(Cl)c1)N1CCc2ccccc2C1 | 26.1 µM (active) | – |
| 6.3 µM (active) | 2.98 µM (active) | > 100 µM (inactive) | CS(=O)(=O)Nc1ccc(C(=O)Nc2ccc3ccccc3c2)cc1 | > 100 µM (inactive) | – |
| – | – | – | C[n+]1ccc(C(=O)NCc2ccccc2)cc1 [ENISAMIUM IODIDE] | – | IC50 [7]: 4.98 µM (active); IC50 [1]: 9.76 µM (active); IC50 [8]: 2.98 µM (active) |
| 28.9 µM (active) | 4.6 µM (active) | > 100 µM (inactive) | Cc1ccc(C(=O)c2sc3nsc(C)c3c2N)cc1 | > 100 µM (inactive) | EC50 [9]: > 260 µM (inconclusive) |
| – | – | – | Cc1ncc(CN2CCCC(C(=O)Nc3ccc(-c4cccc(F)c4)cc3)C2)cn1 (stereo unspecified) | – | EC50 [3]: 0.695 µM (active) |
